# Experimental data taken from ChEMBL document CHEMBL1142695, “Discovery of functionally selective 7,8,9,10-tetrahydro-7,10-ethano-1,2,4-triazolo[3,4-a]phthalazines as GABA A receptor agonists at the alpha3 subunit” (J Med Chem, 2005).
# pKi: −log10 of the molar value.
# Tests used:
# Assay type in all cases: cell-based
# [1] = molecular target: T1, GABA-A receptor; alpha-2/beta-3/gamma-2 (Homo sapiens, UniProt P18507+P28472+P47869); experiment: Inhibition of [3H]Ro-151788 binding to recombinant human gamma-aminobutyric acid A receptor alpha-2-beta-3-gamma-2 subtype expressed in L (tk-) cells
# T1 sequence (P18507 whole entry): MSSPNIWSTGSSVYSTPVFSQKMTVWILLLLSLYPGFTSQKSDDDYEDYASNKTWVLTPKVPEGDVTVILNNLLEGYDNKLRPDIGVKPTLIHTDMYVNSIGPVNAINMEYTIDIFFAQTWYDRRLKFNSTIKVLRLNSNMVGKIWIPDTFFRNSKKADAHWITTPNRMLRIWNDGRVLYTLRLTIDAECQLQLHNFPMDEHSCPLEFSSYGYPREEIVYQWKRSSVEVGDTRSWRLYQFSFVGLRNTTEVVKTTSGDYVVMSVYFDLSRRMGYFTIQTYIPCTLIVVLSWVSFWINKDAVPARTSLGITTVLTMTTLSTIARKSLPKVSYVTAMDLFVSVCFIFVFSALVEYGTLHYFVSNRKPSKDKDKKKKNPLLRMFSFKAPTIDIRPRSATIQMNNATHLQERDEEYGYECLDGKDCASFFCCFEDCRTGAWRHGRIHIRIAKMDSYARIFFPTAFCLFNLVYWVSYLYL
# T1 sequence (P28472 whole entry): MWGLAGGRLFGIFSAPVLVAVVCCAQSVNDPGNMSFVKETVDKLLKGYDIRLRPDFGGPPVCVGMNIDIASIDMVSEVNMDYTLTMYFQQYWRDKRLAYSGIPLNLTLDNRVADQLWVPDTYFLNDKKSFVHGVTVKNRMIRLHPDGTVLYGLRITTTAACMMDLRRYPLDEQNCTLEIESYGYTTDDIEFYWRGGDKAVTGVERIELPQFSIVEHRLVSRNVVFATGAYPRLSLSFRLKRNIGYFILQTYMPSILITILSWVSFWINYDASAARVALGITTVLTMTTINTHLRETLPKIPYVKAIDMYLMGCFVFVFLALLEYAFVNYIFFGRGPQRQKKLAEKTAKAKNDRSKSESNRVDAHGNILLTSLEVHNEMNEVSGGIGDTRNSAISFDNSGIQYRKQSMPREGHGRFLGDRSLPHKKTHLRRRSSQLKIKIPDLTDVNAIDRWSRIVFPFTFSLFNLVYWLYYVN
# T1 sequence (P47869 whole entry): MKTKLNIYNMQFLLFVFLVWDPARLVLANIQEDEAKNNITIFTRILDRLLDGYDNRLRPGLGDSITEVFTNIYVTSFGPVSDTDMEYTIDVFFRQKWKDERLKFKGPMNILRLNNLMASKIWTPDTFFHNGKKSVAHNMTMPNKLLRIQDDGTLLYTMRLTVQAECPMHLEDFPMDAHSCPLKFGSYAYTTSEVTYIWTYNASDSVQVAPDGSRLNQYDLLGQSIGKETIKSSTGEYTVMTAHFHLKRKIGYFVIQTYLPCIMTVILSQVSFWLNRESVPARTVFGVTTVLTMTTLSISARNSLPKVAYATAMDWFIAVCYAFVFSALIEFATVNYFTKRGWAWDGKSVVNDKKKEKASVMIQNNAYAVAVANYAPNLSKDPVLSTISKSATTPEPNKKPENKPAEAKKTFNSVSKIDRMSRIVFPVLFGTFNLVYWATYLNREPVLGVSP
# [2] = molecular target: T2, GABA-A receptor; alpha-1/beta-3/gamma-2 (Homo sapiens, UniProt P14867+P18507+P28472); experiment: Inhibition of [3H]Ro-151788 binding to recombinant human gamma-aminobutyric-acid A receptor alpha-1-beta-3-gamma-2 subtype expressed in L (tk-) cells
# T2 sequence (P14867 whole entry): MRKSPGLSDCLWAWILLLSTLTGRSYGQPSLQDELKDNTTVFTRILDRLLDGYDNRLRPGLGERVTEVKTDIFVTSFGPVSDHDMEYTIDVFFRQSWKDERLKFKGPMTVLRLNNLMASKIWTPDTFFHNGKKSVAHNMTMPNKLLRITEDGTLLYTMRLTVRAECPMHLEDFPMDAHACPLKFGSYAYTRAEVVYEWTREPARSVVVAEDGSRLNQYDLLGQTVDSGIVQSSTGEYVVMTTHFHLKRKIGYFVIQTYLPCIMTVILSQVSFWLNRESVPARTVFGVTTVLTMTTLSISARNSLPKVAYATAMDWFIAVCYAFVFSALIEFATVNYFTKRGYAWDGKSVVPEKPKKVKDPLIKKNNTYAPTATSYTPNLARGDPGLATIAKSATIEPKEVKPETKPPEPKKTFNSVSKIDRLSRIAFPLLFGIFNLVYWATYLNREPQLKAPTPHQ
# T2 sequence (P18507 whole entry): T1 sequence (P18507 whole entry)
# T2 sequence (P28472 whole entry): T1 sequence (P28472 whole entry)
# [3] = molecular target: T3, GABA-A receptor; alpha-3/beta-3/gamma-2 (Homo sapiens, UniProt P18507+P28472+P34903); experiment: Inhibition of [3H]Ro-151788 binding to recombinant human gamma-aminobutyric-acid A receptor alpha-3-beta-3-gamma-2 subtype expressed in L (tk-) cells
# T3 sequence (P18507 whole entry): T1 sequence (P18507 whole entry)
# T3 sequence (P28472 whole entry): T1 sequence (P28472 whole entry)
# T3 sequence (P34903 whole entry): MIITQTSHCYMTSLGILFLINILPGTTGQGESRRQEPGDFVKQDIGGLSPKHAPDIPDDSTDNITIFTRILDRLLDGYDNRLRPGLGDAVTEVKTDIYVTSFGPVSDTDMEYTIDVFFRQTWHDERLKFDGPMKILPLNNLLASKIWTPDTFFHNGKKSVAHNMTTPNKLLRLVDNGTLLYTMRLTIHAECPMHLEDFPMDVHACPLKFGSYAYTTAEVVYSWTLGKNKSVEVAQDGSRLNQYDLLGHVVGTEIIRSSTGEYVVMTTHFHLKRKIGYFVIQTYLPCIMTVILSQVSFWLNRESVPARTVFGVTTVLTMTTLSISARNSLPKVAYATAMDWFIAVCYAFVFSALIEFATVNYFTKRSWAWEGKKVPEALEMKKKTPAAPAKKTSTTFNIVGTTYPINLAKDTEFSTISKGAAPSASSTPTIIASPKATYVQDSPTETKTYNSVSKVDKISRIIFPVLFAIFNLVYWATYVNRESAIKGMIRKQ
# [4] = molecular target: T4, GABA-A receptor; alpha-5/beta-3/gamma-2 (Homo sapiens, UniProt P18507+P28472+P31644); experiment: Inhibition of [3H]Ro-151788 binding to recombinant human gamma-aminobutyric-acid A receptor alpha-5-beta-3-gamma-2 subtype expressed in L (tk-) cells
# T4 sequence (P18507 whole entry): T1 sequence (P18507 whole entry)
# T4 sequence (P28472 whole entry): T1 sequence (P28472 whole entry)
# T4 sequence (P31644 whole entry): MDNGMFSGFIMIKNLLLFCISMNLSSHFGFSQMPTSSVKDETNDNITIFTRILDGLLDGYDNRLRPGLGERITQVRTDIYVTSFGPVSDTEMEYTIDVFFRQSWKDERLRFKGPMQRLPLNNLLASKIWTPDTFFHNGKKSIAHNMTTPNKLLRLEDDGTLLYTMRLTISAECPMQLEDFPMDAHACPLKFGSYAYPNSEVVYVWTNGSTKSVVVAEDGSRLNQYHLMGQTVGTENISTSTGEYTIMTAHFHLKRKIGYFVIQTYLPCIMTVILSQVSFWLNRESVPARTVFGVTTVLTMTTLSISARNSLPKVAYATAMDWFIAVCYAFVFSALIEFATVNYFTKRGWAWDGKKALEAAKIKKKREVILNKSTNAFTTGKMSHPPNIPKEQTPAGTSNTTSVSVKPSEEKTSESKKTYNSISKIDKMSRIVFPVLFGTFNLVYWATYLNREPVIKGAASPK
Structure (SMILES),pKi [1],pKi [2],pKi [3],pKi [4]
FC(F)(F)Oc1ccc(COc2nn3c(-c4ccccc4)nnc3c3c2C2CCC3CC2)cc1,< 6.30,< 6.30,< 6.30,< 6.30
c1ccc(-c2nnc3c4c(c(CNc5ccccn5)nn23)C2CCC4CC2)cc1,< 6.00,< 6.00,< 6.00,< 6.00
c1ccc(-c2nnc3c4c(c(OCc5ncccn5)nn23)C2CCC4CC2)cc1,7.17,7.06,7.48,8.04
Cc1cnc(COc2nn3c(-c4ccccc4)nnc3c3c2C2CCC3CC2)s1,7.55,7.00,7.62,8.70
Cc1ccc(-c2nc3ccc(C)cn3c2CC(=O)N(C)C)cc1 [ZOLPIDEM],6.99,,6.61,< 5.48
OCC1CCC(COc2nn3c(-c4ccccc4)nnc3c3c2C2CCC3CC2)CC1 (stereo in doubt),< 6.00,< 6.00,< 6.00,7.06
c1ccc(COc2nn3c(C4CC4)nnc3c3c2C2CCC3CC2)nc1,7.62,6.89,7.74,8.74
Cc1csc(COc2nn3c(-c4ccccc4)nnc3c3c2C2CCC3CC2)n1,7.40,6.85,7.52,8.54
Fc1ccc(-c2nnc3c4c(c(OCc5ccccn5)nn23)C2CCC4CC2)cc1,6.74,6.51,,7.57
Cc1ccccc1-c1nnc2c3c(c(OCc4ccccn4)nn12)C1CCC3CC1,6.55,< 6.00,6.55,7.66
c1ccc(COc2nn3c(-c4ccsc4)nnc3c3c2C2CCC3CC2)nc1,7.28,6.89,7.42,8.36
CCO[n+]1ccccc1Oc1nn2c(-c3ccccc3)nnc2c2c1C1CCC2CC1,6.41,< 6.00,6.26,7.19
Cc1nnc2ccc(-c3cccc(C(F)(F)F)c3)nn12 [CI-218872],6.14,7.18,6.07,6.34
CN(C(=O)COc1nn2c(-c3ccccc3)nnc2c2c1C1CCC2CC1)c1ccccc1,7.14,7.68,7.39,8.13
c1ccc(-c2nnc3c4c(c(OCc5nc6ccccc6s5)nn23)C2CCC4CC2)cc1,< 6.00,< 6.00,6.60,7.64
Oc1cccnc1COc1nn2c(-c3ccccc3)nnc2c2c1C1CCC2CC1,6.33,6.57,6.74,7.47
c1ccc(COc2nn3c(-c4ccccc4)nnc3c3c2C2CCC3CC2)cc1,< 6.00,< 6.00,< 6.00,6.96
OCc1ccc(COc2nn3c(-c4ccccc4)nnc3c3c2C2CCC3CC2)cc1,7.12,6.28,7.36,7.96
Cc1noc(COc2nn3c(-c4ccccc4)nnc3c3c2C2CCC3CC2)n1,6.60,6.54,7.29,7.92
Cc1cccc(COc2nn3c(-c4ccccc4)nnc3c3c2C2CCC3CC2)n1,7.44,6.80,7.70,8.59
Fc1ccccc1-c1nnc2c3c(c(OCc4ccccn4)nn12)C1CCC3CC1,7.80,7.55,8.21,9.27
Cc1cccc(-c2nnc3c4c(c(OCc5ccccn5)nn23)C2CCC4CC2)c1,6.68,6.24,6.85,7.77
c1ccc(COc2nn3c(-c4ccncc4)nnc3c3c2C2CCC3CC2)nc1,6.49,< 6.00,6.82,7.70
c1ccc(-c2nnc3c4c(c(OCc5cnc6ccccc6n5)nn23)C2CCC4CC2)cc1,7.47,7.09,7.59,8.41
